US10603322B2, “Therapeutic targeting of casein kinase 1δ in breast cancer” (The Scripps Research Institute, priority 2015, dated 2020)

Tests used:
[1] = test system: breast cancer cell types overexpressing CK1δ; experiment: Cell proliferation assay (Cell-Titer Glo, 72 hr); type: cell-based; conditions: Homo sapiens
Experimental: (§1) Cell proliferation was measured 72 hr after SR-3029 or vehicle treatment using Cell-Titer Glo (Promega) according to the manufacturers' instructions. EC50 values were determined using non-linear regression and a four-parameter algorithm (GraphPad Prism5). For clonogenic assays, cells were plated in 6-well dishes in triplicate at a density of 500-1000 cells per well. After overnight incubation, SR-3029 or vehicle (DMSO) was added to media for 72 hr and cells were allowed to grow out for 7-10 days, during which media was changed every 2-3 days in the absence of compound. Colonies were fixed in 4% paraformaldehyde/PBS and stained with 0.5% methylene blue in 50% ethanol for 1 hr at room temperature and de-stained with water. Colonies with greater than 50 cells were counted using a low magnification light microscope.

[2] = test system: MCF10A cell line; experiment: Cell proliferation assay (Cell-Titer Glo, 72 hr); type: cell-based, human; conditions: low CK1δ; versus CK1δ overexpressing cells
Experimental: as §1

[3] = test system: MCF7 breast cancer cells; experiment: Cell proliferation assay (Cell-Titer Glo, 72 hr); type: cell-based, human; conditions: low CK1δ; versus CK1δ overexpressing cells
Experimental: as §1

[4] = test system: T47D breast cancer cells; experiment: Cell proliferation assay (Cell-Titer Glo, 72 hr); type: cell-based, human; conditions: low CK1δ; versus CK1δ overexpressing cells
Experimental: as §1

[5] = test system: MDA-MB-231 TNBC cells; experiment: Cell proliferation / growth assay; type: cell-based, human; conditions: forced expression of β-catenin-S33Y or β-catenin N90; 72 hr
[6] = test system: MCF7 breast cancer cells; experiment: Clonogenic growth assay; type: cell-based, human
Experimental: as §1

[7] = test system: MDA-MB-231 cells; experiment: Clonogenic growth assay; type: cell-based, human
Experimental: as §1

[8] = test system: CK1δ overexpressing breast cancer cells; experiment: Apoptosis by PI/Annexin V FACS; type: cell-based, human; conditions: 72 hr treatment
Experimental: 2×10^5 cells seeded in triplicate in 6-well dishes were cultured with SR-3029 or vehicle for 72 hr. Cells were then harvested and stained with Annexin V-FITC and PI using the Annexin V-FITC Apoptosis Detection Kit (BioVision) per the manufacturer's instructions and analyzed using the LSRI II flow cytometer (Becton Dickinson). Staurosporine (Cell Signaling) treated cells (1 μM) were used as positive/compensation controls.

[9] = test system: MDA-MB-231 tumor xenografts; experiment: Established orthotopic tumor xenograft; type: in vivo, nude mice; conditions: 20 mg/kg daily i.p.
Source text: (§2) All animal studies are approved by the Scripps Florida IACUC. Stable pools of MDA-MB-231-Luc, MDA-MB-231, MDA-MB-468, SKBR3 or BT474 cells were established by injection of 2×10^6 cancer cells into the mammary fat pads of 6-week old female athymic nude mice (Charles River Laboratories). Establishment of BCM-4013 patient derived xenografts were as described (19). Briefly, fresh xenograft tumor fragments (˜1 mm^3) were transplanted into the cleared mammary fat pad of recipient SCID/Bg mice (Charles River Laboratories). Mice were treated with SR-3029 or vehicle (10:10:80, DMSO:Tween-80:Water) at 20 mg/kg daily by i.p. injection. Tumor volumes were measured as the indicated intervals using calipers or by luminescence imaging using the IVIS 100 imager (exposure time, 1-60 sec; binning 8; field of view 15-cm; f/stop 1; open filter) following subcutaneous injection of luciferin (15 mg/ml, Goldbio Technology). Average radiance (p/s/cm^2/sr) was determined from tumor region-of-interest (ROI) using Living-Image (Xenogen) analysis software.
(§3) For apoptotic detection in cryosections tumors and small intestines were fixed in 10% buffered formalin for 2 hr, incubated in 20% sucrose overnight and embedded in OCT. Frozen sections ([…]) were mounted and stained using the ApopTag Red In Situ Kit according to the manufacturer instructions (CHEMICON). For H&E staining, tissues were fixed in 10% buffered formalin for 48 hr, transferred to 70% ethanol/PBS and embedded in paraffin. Staining was performed on […] sections following deparaffinization (AML Laboratories).

[10] = Tolerability of long-term daily dosing; type: in vivo, mice
Source text: as §2, §3

[11] = test system: β-catenin; experiment: β-catenin expression by immunoblot in breast cancer cells; type: cell-based, human; conditions: 18 hr
Experimental: SDS-PAGE gel electrophoresis was performed using NuPAGE 4-12% Bis-Tris gels (Invitrogen) and transferred to PVDF membranes by semi-dry transfer using trans-blot transfer medium (Biorad). Membranes were blocked in Odyssey blocking buffer (LI-COR Biosciences) and incubated overnight at 4° C. with primary antibodies. After repeated washes with TBST (20 mM Tris, pH 7.6, 140 mM NaCl and 0.1% Tween-20) blots were incubated with the appropriate IRDye-conjugated secondary antibody (LI-COR Biosciences) and imaged using the LI-COR Odyssey. Bands were quantified using the Odyssey software (LI-COR Biosciences). The following antibodies were used in this study: CK1δ and Histone H4 (Abcam), CK1ε, c-Myc (9E10), Cyclin-D1 and β-actin (Santa Cruz), β-catenin (Cell Signaling), GAPDH (Millipore) and CD44 (R&D Systems).

[12] = test system: β-catenin/TCF transcriptional activity; experiment: TCF-dependent luciferase reporter assay in MDA-MB-231 cells; type: cell-based, human; conditions: increasing doses, 6 hr
Experimental: (§4) MDA-MB-231 or HEK293 cells stably expressing the TCF luciferase reporter 7TFP (39) were transfected with β-catenin-S33Y or empty vector (pcDNA). After 18 hr cells were seeded onto a 96-well plate at a density of 6000 cells/well. After 24 hr cells were treated with SR-3029 or vehicle and incubated for 6 hr prior to addition of 1 μg/ml recombinant human Wnt3a (R&D Systems) or PBS. After 3 hr, reporter assays were performed using BriteLite Plus (Perkin Elmer), which was added in equal volume directly to the media and luminescence read using a Spectramax plate reader (Molecular Devices).

[13] = test system: Wnt-3a-directed induction of the TCF reporter; experiment: Wnt-3a-induced TCF-dependent luciferase reporter assay in HEK293T cells; type: cell-based, human
Experimental: as §4

[14] = test system: CK1δ and CK1ε; conditions: cited from earlier work
[15] = biological target: FLT3 (Homo sapiens, UniProt P36888); conditions: cited from earlier work
[16] = in vivo; cited from earlier work

FLT3, sequence (P36888 564-993 limits assumed): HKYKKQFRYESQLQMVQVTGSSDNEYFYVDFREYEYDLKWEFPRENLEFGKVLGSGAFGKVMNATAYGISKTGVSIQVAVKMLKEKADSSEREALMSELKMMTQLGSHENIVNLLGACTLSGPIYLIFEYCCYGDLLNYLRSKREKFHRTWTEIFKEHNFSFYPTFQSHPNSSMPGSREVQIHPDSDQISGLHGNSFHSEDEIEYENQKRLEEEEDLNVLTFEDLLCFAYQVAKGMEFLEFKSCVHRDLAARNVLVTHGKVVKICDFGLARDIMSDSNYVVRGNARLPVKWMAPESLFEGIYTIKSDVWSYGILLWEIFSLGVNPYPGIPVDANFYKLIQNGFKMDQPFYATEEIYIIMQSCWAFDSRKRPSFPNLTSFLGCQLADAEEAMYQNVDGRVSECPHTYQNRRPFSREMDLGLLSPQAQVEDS

Structure (SMILES): Fc1cccc(-n2cnc3c(NCc4nc5ccc(F)c(F)c5[nH]4)nc(N4CCOCC4)nc32)c1 [SR-3029]
- EC50 [1]: 5 to 70 nM
- sensitivity in cell proliferation assay [2]: 2-3 orders of magnitude less sensitive
- sensitivity in cell proliferation assay [3]: 2-3 orders of magnitude less sensitive and relative insensitivity and refractory
- sensitivity in cell proliferation assay [4]: 2-3 orders of magnitude less sensitive
- growth inhibitory and apoptotic effects with constitutively active β-catenin [5]: sufficient to rescue the growth inhibitory and apoptotic effects
- colony forming capacity [6]: no effect
- sensitivity of MCF7 cells with forced overexpression of CK1δ ([6]; short-term and long-term growth assays, CK1δ vs GFP): sensitizes them to SR-3029
- clonogenic growth and survival [7]: completely blocked
- clonogenic growth inhibition with forced overexpression of CK1δ ([7]; CK1δ overexpressing vs GFP-expressing controls): sufficient to rescue the growth inhibitory effects
- apoptosis [8]: selectively triggered rapid apoptosis
- lifespan (Kaplan-Meier survival) [9]: significantly prolonged lifespan
- tumor apoptosis (TUNEL) [9]: fulminant apoptosis
- tumor growth ([9]; tumors 100-mm^3 before treatment): marked tumor growth inhibition
- tolerability: body weight, blood chemistry and tissue integrity by histochemistry ([10]; long-term daily dosing (48 days), 20 mg/kg i.p.): well tolerated, with no overt toxicity
- small intestine apoptosis, TUNEL staining ([10]; long-term treatment): failed to detect evidence of apoptosis
- small intestine integrity, H&E staining ([10]; long-term treatment): no gross morphological defects
- expression of the active, nuclear pool of β-catenin ([11]; MDA-MB-231, MDA-MB-436, MDA-MB-468 and BT474 cells, 30 nM): markedly reduced
- unphosphorylated, active form of β-catenin (ABC) ([11]; MDA-MB-231 cells): reduction
- endogenous β-catenin/TCF transcriptional activity [12]: markedly reduced
- Wnt-3a-directed induction of the TCF reporter ([13]; 1 μg/ml Wnt-3a, 3 hr): abolished
- TCF reporter activity with constitutively active β-catenin (S33Y) ([13]; forced expression of β-catenin S33Y): refractory
- type of inhibition, potency and selectivity [14]: ATP competitive inhibitor with exceptional potency and selectivity
- FLT3 off-target activity [15]: common (and weak) off-target
- pharmacokinetic properties [16]: amenable for in vivo studies
